Tested on: 422866-222-R5-J1-PDC spheroid viability
Test: Anticancer human tumor 422866-222-R5-J1-PDC patient-derived pancreatic adenocarcinoma cell line growth inhibition [CLK]
Conditions: spheroids with HUVEC and MSC; for IC50: curve of first compound; for viability, T/C: stronger effect = lower value
Excerpt: A high-throughput screen of multi-cell type tumor spheroids was designed to identify active combinations of […] and targeted small molecules. Complex spheroids include a stromal component modeled by human endothelial cells (HUVEC) and fibroblasts modeled by human mesenchymal stem cells (MSCs). The concentration ranges selected for each drug and investigational agent were based upon clinically achievable concentrations if the clinical Cmax of the agent was known.
Compounds. The drugs and investigational agents: cirtuvivint (SM08502; NSC835563), CC-671 (NSC850746), vemurafenib (NSC761431), tapotoclax (NSC804041), sotorasib (NSC818433), adagrasib (NSC831453), MRTX-1133 (NSC836407), BAY2416964 (NSC825713), copanlisib (NSC816437), inavolisib (NSC800729), abemaciclib (NSC768073), osimertinib (NSC779217), entinostat (NSC756642), eltanexor (KPT-8602, NSC794443), venetoclax (NSC766270), ceralasertib (NSC777638), bortezomib (NSC756655), olaparib (NSC753686), talazoparib (NSC767125), alisertib (NSC759677), peposertib (NSC802822), gemcitabine (NSC613327), 5-fluorouracil (NSC19893), SN-38 (NSC673596), oxaliplatin (NSC266046), paclitaxel (NSC125973), and doxorubicin (NSC123127), were obtained from the National Cancer Institute (NCI) Developmental Therapeutics Program Chemical Repository. The FDA-approved anticancer drug set is available from the Developmental Therapeutics Program at https://dtp.cancer.gov/organization/dscb/obtaining/available plates.htm. […] The stock solutions were prepared in dimethyl sulfoxide (DMSO, Sigma-Aldrich, St. Louis, MO, cat. D2650), except for the platinum complexes which were prepared in saline (Quality Biological, Gaithersburg, MD, cat. 114-055-101), at 800-fold the tested concentration and stored at -70 degrees C prior to their use. All drugs and investigational agents were tested over a range starting from a high concentration at or near the clinical Cmax and decreasing in half-log increments. If the clinical Cmax for an agent had not been determined, the highest concentration tested was 10 microM.
Cell Culture. All cells were maintained in an incubator at 37 degrees C and 5% CO2 with 95% humidity. The PDC lines were cultured according to standard operating procedures established by the NCI PDMR. Briefly, all PDCs were thawed and cultured in Matrigel-coated flasks prepared with a working solution of 1X Ham's F-12 nutrient mix, without supplementation (Invitrogen, Waltham, MA, cat. 11765054), 100 U/mL penicillin-streptomycin (Invitrogen, cat. 15140122), and 2.5% Matrigel (Corning Inc., Corning, NY, cat. 354248) for the first three passages. The 947758-054-R-J2-PDC line was cultured in 6B/Colon 1A media, which includes advanced DMEM/F-12 (Thermo Fisher Scientific, cat. 12634028), 10 mM HEPES (Thermo Fisher Scientific, cat. 15630080), 1X GlutaMAX supplement (Thermo Fisher Scientific, cat. 35050061), 0.1 mg/mL primocin (InvivoGen, cat. ant-pm-2), 10% defined fetal bovine serum, heat inactivated (HyClone Laboratories Inc., cat. SH30070.03HI), 1.25 mM N-Acetyl-L-cysteine (Sigma-Aldrich, cat. A9165), 10 mM nicotinamide (Sigma-Aldrich, cat. N0636), 1X B-27 supplement (Thermo Fisher Scientific, cat. 17504044), 1X N-2 supplement (Thermo Fisher Scientific, cat. 17502048), and 10 microM Y-27632 dihydrochloride (Tocris Bioscience, cat. 1254). The 876862-298-R-J1-PDC was cultured in 6E media, which includes all 6B/Colon 1A media components plus 50% L-WRN conditioned media (ATCC, cat. CRL-3276), 50 ng/mL recombinant human EGF recombinant protein (hEGF; Thermo Fisher Scientific, cat. PHG0311), 10 ng/mL recombinant human fibroblast growth factor 10 (hGFG-10; PeproTech, cat. 100-26), 1 ng/mL recombinant human fibroblast growth factor 2 (hFGF-2; PeproTech, cat. 100-18B), and 1 µM prostaglandin E2 (PGE2; Tocris, cat. 2296). The 227483-062-R1-J1-PDC line was cultured in Panc media, containing all 6E components except hFGF-2, with the addition of 500 nM SB-431542 (Selleckchem, cat. S1067) and 10 nM gastrin (Tocris, cat. 3006). […]
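Note: spheroids exposed to agents for seven days before readout.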

Compound: CC(CO)NC(=O)c1cc(-c2ccc(Cl)cc2)nn(-c2cnn(C)c2)c1=O (configuration not stated) + CN1CCN(c2cc(C(=O)Nc3cc4cc(-c5cnn(C)c5)ccc4cn3)ccn2)CC1
- IC50 (second compound 0.0316 µM): > 10 µM
- IC50 (second compound 0.1 µM): > 10 µM
- IC50 (second compound 0.316 µM): > 10 µM
- IC50 (second compound 1 µM): < 0.0316 µM
- IC50 (second compound 3.16 µM): < 0.0316 µM
- IC50 (second compound 10 µM): < 0.0316 µM
- viability, T/C (second compound 0.0316 µM, first compound 0.0316 µM): 115%
- viability, T/C (second compound 0.0316 µM, first compound 0.1 µM): 104%
- viability, T/C (second compound 0.0316 µM, first compound 0.316 µM): 106%
- viability, T/C (second compound 0.0316 µM, first compound 1 µM): 135%
- viability, T/C (second compound 0.0316 µM, first compound 3.16 µM): 106%
- viability, T/C (second compound 0.0316 µM, first compound 10 µM): 75.7%
- viability, T/C (second compound 0.1 µM, first compound 0.0316 µM): 115%
- viability, T/C (second compound 0.1 µM, first compound 0.1 µM): 118%
- viability, T/C (second compound 0.1 µM, first compound 0.316 µM): 104%
- viability, T/C (second compound 0.1 µM, first compound 1 µM): 116%
- viability, T/C (second compound 0.1 µM, first compound 3.16 µM): 104%
- viability, T/C (second compound 0.1 µM, first compound 10 µM): 82.6%
- viability, T/C (second compound 0.316 µM, first compound 0.0316 µM): 107%
- viability, T/C (second compound 0.316 µM, first compound 0.1 µM): 93.5%
- viability, T/C (second compound 0.316 µM, first compound 0.316 µM): 86.9%
- viability, T/C (second compound 0.316 µM, first compound 1 µM): 88.7%
- viability, T/C (second compound 0.316 µM, first compound 3.16 µM): 80.8%
- viability, T/C (second compound 0.316 µM, first compound 10 µM): 68.8%
- viability, T/C (second compound 1 µM, first compound 0.0316 µM): 30.9%
- viability, T/C (second compound 1 µM, first compound 0.1 µM): 27.6%
- viability, T/C (second compound 1 µM, first compound 0.316 µM): 31.6%
- viability, T/C (second compound 1 µM, first compound 1 µM): 31.1%
- viability, T/C (second compound 1 µM, first compound 3.16 µM): 31.3%
- viability, T/C (second compound 1 µM, first compound 10 µM): 32%
- viability, T/C (second compound 3.16 µM, first compound 0.0316 µM): 13.1%
- viability, T/C (second compound 3.16 µM, first compound 0.1 µM): 13.4%
- viability, T/C (second compound 3.16 µM, first compound 0.316 µM): 12.1%
- viability, T/C (second compound 3.16 µM, first compound 1 µM): 12%
- viability, T/C (second compound 3.16 µM, first compound 3.16 µM): 11.5%
- viability, T/C (second compound 3.16 µM, first compound 10 µM): 13.6%
- viability, T/C (second compound 10 µM, first compound 0.0316 µM): 2.51%
- viability, T/C (second compound 10 µM, first compound 0.1 µM): 3.09%
- viability, T/C (second compound 10 µM, first compound 0.316 µM): 1.44%
- viability, T/C (second compound 10 µM, first compound 1 µM): 2.25%
- viability, T/C (second compound 10 µM, first compound 3.16 µM): 3.26%
- viability, T/C (second compound 10 µM, first compound 10 µM): 1.54%

From PubChem BioAssay AID2060603 (Molecular Pharmacology Branch, DTP, NCI, 2025)
